In brackets after ≈: the same amount, converted by molar mass. Where a name gives a salt, the structure may show the parent alone. Read-outs that look alike come from different tables or passages of the source.
What was measured:
[1] = tested on: Escherichia coli (ATCC25922); assay: MIC, broth microdilution (CLSI), Escherichia coli ATCC25922
[2] = tested on: Staphylococcus aureus subsp. aureus (ATCC29213); assay: MIC, broth microdilution (CLSI), Staphylococcus aureus subsp. aureus ATCC29213; type: cell-based; details: ATCC29213, Table 15, read-out: S. aureus ("wound") (MIC)
[3] = ATCC25922, read-out: E. coli MIC, Table 15, NI = No inhibition
[4] = ATCC25922, read-out: E. coli MIC

Structure (SMILES) | MIC [1, 3] [µg/mL] | MIC [2] [µg/mL] | MIC [1, 4] [µg/mL]
NC1CCCC(C(=O)Nc2cc(C(F)(F)F)cc3c2Nc2ccc(N4CCNCC4)cc2S3)C1 (stereo not shown) [compound 256, 3-amino-N-(7-(piperazin-1-yl)-3-(trifluoromethyl)-10H-phenothiazin-1-yl)cyclohexane-1-carboxamide] | 32 (≈ 65.1 µM) | 16 (≈ 32.5 µM) | –
NC1CCCC(C(=O)Nc2cc(C(F)(F)F)cc3c2Nc2ccncc2S3)C1 (stereo not shown) [compound 257, 3-amino-N-(8-(trifluoromethyl)-5H-benzo[e]pyrido[3,4-b][1,4]thiazin-6-yl)cyclohexanecarboxamide] | 128 (≈ 313 µM) | 64 (≈ 157 µM) | –
FC(F)(F)c1cc(NC2CCNCC2)c2c(c1)SC1CCCCC1N2 (stereo not shown) [compound 259, N-(piperidin-4-yl)-7-(trifluoromethyl)-2,3,4,4a,10,10a-hexahydro-1H-phenothiazin-9-amine] | 64 (≈ 172 µM) | 16 (≈ 43.1 µM) | –
NCCCN1c2ccc(C(=O)O)cc2Sc2cc(-c3cc4ccccc4[nH]3)ccc21 [compound 262, 10-(3-aminopropyl)-7-(1H-indol-2-yl)-10H-phenothiazine-3-carboxylic acid trifluoro acetic acid] | – | 32 (≈ 77 µM) | > 128
NC1CCCC(C(=O)Nc2cc(C(F)(F)F)cc3c2Nc2ncccc2S3)C1 (stereo not shown) [compound 263, 3-amino-N-(7-(trifluoromethyl)-10H-benzo[b]pyrido[2,3-e] [1,4]thiazin-9-yl)cyclohexane-1-carboxamide] | 64 (≈ 157 µM) | 64 (≈ 157 µM) | –
FC(F)(F)c1cc(NC2CCNCC2)c2c(c1)Sc1cccnc1N2 [compound 264, N-(piperidin-4-yl)-7-(trifluoromethyl)-10H-benzo[b] pyrido[2,3-e] [1,4]thiazin-9-amine] | 16 (≈ 43.7 µM) | 8 (≈ 21.8 µM) | –
NCCCN1c2ccc(N3CCNCC3)cc2Sc2cc(C(F)(F)F)ccc21 [compound 265, 3-(3-(piperazin-1-yl)-7-(trifluoromethyl)-10H-phenothiazin-10-yl)propan-1-amine hydrochloride] | – | 16 | 64
NCCCN1c2ccncc2Sc2cc(-c3cc4ccccc4[nH]3)ccc21 [compound 267, 3-(8-(1H-indol-2-yl)-5H-benzo[b]pyrido[4,3-e] [1,4]thiazin-5-yl)propan-1-amine trifluoro acetic acid] | – | 2 (≈ 5.37 µM) | 16 (≈ 43 µM)
NCCN1CCN(c2ccc3c(c2)Sc2cc(C(F)(F)F)cc(NC4CCNCC4)c2N3)CC1 [compound 269, 7-(4-(2-aminoethyl)piperazin-1-yl)-N-(piperidin-4-yl)-3-(trifluoromethyl)-10H-phenothiazin-1-amine hydrochloride] | – | 16 | 64
FC(F)(F)c1cc(NC2CCNCC2)c2c(c1)Sc1cc(N3CCNCC3)ccc1N2 [compound 270, 7-(piperazin-1-yl)-N-(piperidin-4-yl)-3-(trifluoromethyl)-10H-phenothiazin-1-amine hydrochloride] | – | 32 | 128
CCOC(=O)c1ccc2c(c1)Sc1cc(N3CCN(CCN)CC3)ccc1N2CCCN [compound 271, ethyl 7-(4-(2-aminoethyl)piperazin-1-yl)-10-(3-aminopropyl)-10H-phenothiazine-3-carboxylate trifluoro acetic acid] | – | 128 (≈ 281 µM) | > 128
Cl.Cl.NCCN1CCC(Nc2cc(C(F)(F)F)cc3c2Nc2ccc(N4CCC(N)CC4)cc2S3)CC1 [compound 272, N-(1-(2-aminoethyl)piperidin-4-yl)-7-(4-aminopiperidin-1-yl)-3-(trifluoromethyl)-10H-phenothiazin-1-amine] | 32 | 16 | –
Cl.Cl.Cl.NCCC1CCN(c2ccc3c(c2)Sc2cc(C(F)(F)F)cc(NC4CCN(CCN)CC4)c2N3)CC1 [compound 273, 7-(4-(2-aminoethyl)piperidin-1-yl)-N-(1-(2-aminoethyl)piperidin-4-yl)-3-(trifluoromethyl)-10H-phenothiazin-1-amine hydrochloride] | 32 | 8 | –
CCOC(=O)c1ccc2c(c1)Sc1cc(Br)ccc1N2CCCN [compound 276, ethyl 10-(3-aminopropyl)-7-bromo-10H-phenothiazine-3-carboxylate] | 32 (≈ 78.6 µM) | 4 (≈ 9.82 µM) | –
Cl.Cl.NCCCN1c2ccc(C(=O)O)cc2Sc2cc(N3CCN(CCN)CC3)ccc21 [compound 277, 7-(4-(2-aminoethyl)piperazin-1-yl)-10-(3-aminopropyl)-10H-phenothiazine-3-carboxylic acid hydrochloride] | – | > 128 | > 128
Cl.Cl.Cl.NCCCN1c2ccc(Br)cc2Sc2cc(N3CCN(CCN)CC3)ccc21 [compound 278, 3-(3-(4-(2-aminoethyl)piperazin-1-yl)-7-bromo-10H-phenothiazin-10-yl)propan-1-amine hydrochloride] | 128 | 32 | –

Structure (SMILES) | MIC [1, 3] [µg/mL] | MIC [2] [µg/mL] | MIC [1, 4] [µg/mL]
CC1CN(c2ccc3c(c2)Sc2cc(Br)ccc2N3CCCN)CC(C)O1.Cl (stereo not shown) [compound 279, 3-(3-bromo-7-(2,6-dimethyl-morpholino)-10H-phenothiazin-10-yl)propan-1-amine hydrochloride] | 128 | 16 | –
Cl.Cl.NCCN1CCC(Nc2cc(C(=O)NNc3ccc(F)cc3)cc3c2Nc2ccccc2S3)CC1 [compound 280, 1-((1-(2-aminoethyl)piperidin-4-yl)amino)-N′-(4-fluorophenyl)-10H-phenothiazine-3-carbohydrazide hydrochloride] | 64 | 16 | –
Cl.Cl.NCCN1CCC(Nc2cc(C(=O)NNc3ccccc3)cc3c2Nc2ccccc2S3)CC1 [compound 281, 1-((1-(2-aminoethyl)piperidin-4-yl)amino)-N′-phenyl-10H-phenothiazine-3-carbohydrazide hydrochloride] | 64 | 32 | –
Cl.Cl.NCCN1CCC(Nc2cc(C(F)(F)F)cc3c2Nc2ccc(Br)cc2S3)CC1 [compound 282, N-(1-(2-aminoethyl)piperidin-4-yl)-7-bromo-3-(trifluoromethyl)-10H-phenothiazin-1-amine hydrochloride] | 8 | 4 | –
CC1CC(C)CN(c2ccc3c(c2)Sc2cc(N4CCN(CCN)CC4)ccc2N3CCCN)C1.Cl.Cl.Cl.Cl (stereo not shown) [compound 286, 3-(3-(4-(2-aminoethyl)piperazin-1-yl)-7-(3,5-dimethyl-piperidin-1-yl)-10H-phenothiazin-10-yl)propan-1-amine hydrochloride] | 128 | 32 | –
Cl.Cl.NCCN1CCC(Nc2cc(C(N)=O)cc3c2Nc2ccccc2S3)CC1 [compound 287, 1-((1-(2-aminoethyl)piperidin-4-yl)amino)-10H-phenothiazine-3-carboxamide hydrochloride] | – | 128 | > 128
Cl.Cl.NCCN1CCC(Nc2cc(C(=O)N3CCCC3)cc3c2Nc2ccccc2S3)CC1 [compound 288, (1-(1-(2-aminoethyl)piperidin-4-ylamino)-10H-phenothiazin-3-yl)(pyrrolidin-1-yl)methanone] | – | 128 | 128
Cl.Cl.NCCN1CCC(Nc2cc(C(F)(F)F)cc3c2Nc2ccc(N4CCCCC4)cc2S3)CC1 [compound 289, N-(1-(2-aminoethyl)piperidin-4-yl)-7-(piperidin-1-yl)-3-(trifluoromethyl)-10H-phenothiazin-1-amine hydrochloride] | 8 | 4 | –
FC(F)(F)c1cc(NC2CC3CCC(C2)N3)c2c(c1)Sc1ccccc1N2 (stereo not shown) [compound 290, N-(8-azabicyclo[3.2.1]octan-3-yl)-3-(trifluoromethyl)-10H-phenothiazin-1-amine] | 32 (≈ 81.7 µM) | 8 (≈ 20.4 µM) | –
Cl.Cl.Cl.NCCCN1c2ccc(N3CCCC3)cc2Sc2cc(N3CCN(CCN)CC3)ccc21 [compound 291, 3-(3-(4-(2-aminoethyl)piperazin-1-yl)-7-(pyrrolidin-1-yl)-10H-phenothiazin-10-yl)propan-1-amine hydrochloride] | 128 | 16 | –
Cl.NCCN1CCC(Nc2cc(C(F)(F)F)cc3c2Nc2ccc(N4CCC4)cc2S3)CC1 [compound 296, N-(1-(2-aminoethyl)piperidin-4-yl)-7-(azetidin-1-yl)-3-(trifluoromethyl)-10H-phenothiazin-1-amine hydrochloride] | 8 | 4 | –
Cl.Cl.N#Cc1ccc2c(c1)Sc1cc(C(F)(F)F)cc(NC(=O)CCNCCN)c1N2 [compound 304, 3-((2-aminoethyl)amino)-N-(7-cyano-3-(trifluoromethyl)-10H-phenothiazin-1-yl)propanamide hydrochloride] | 32 | 16 | –
CC1CCCN(c2ccc3c(c2)Sc2cc(C(F)(F)F)cc(NC(=O)CCNCCN)c2N3)C1.Cl.Cl (stereo not shown) [compound 308, 3-((2-aminoethyl)amino)-N-(7-(3-methyl-piperidin-1-yl)-3-(trifluoromethyl)-10H-phenothiazin-1-yl)propanamide hydrochloride] | 64 | 16 | –
Cl.Cl.NCCN1CCC(Nc2cc(C(F)(F)F)cc3c2Nc2ccc(N4CCc5ccccc54)cc2S3)CC1 [compound 310, N-(1-(2-aminoethyl)piperidin-4-yl)-7-(indolin-1-yl)-3-(trifluoromethyl)-10H-phenothiazin-1-amine hydrochloride] | 128 | 8 | –
CC1CCCN(c2ccc3c(c2)Sc2cc(C(F)(F)F)cc(NC(=O)C4CCCC(N)C4)c2N3)C1.Cl.Cl (stereo not shown) [compound 313, 3-amino-N-(7-(3-methyl-piperidin-1-yl)-3-(trifluoromethyl)-10H-phenothiazin-1-yl)cyclohexane-1-carboxamide hydrochloride] | > 128 | 16 | –
CC1CCCN1c1ccc2c(c1)Sc1cc(C(F)(F)F)cc(NC3CCN(CCN)CC3)c1N2.Cl.Cl (stereo not shown) [compound 316, N-(1-(2-aminoethyl)piperidin-4-yl)-7-(2-methyl-pyrrolidin-1-yl)-3-(trifluoromethyl)-10H-phenothiazin-1-amine hydrochloride] | 8 | 2 | –

From US11130741B2 (Bioimics AB, priority 2016, dated 2021)
